Publication PMC6325200, “Effects of Microplate Type and Broth Additives on Microdilution MIC Susceptibility Assays” (Antimicrobial Agents and Chemotherapy, 2018)
≈ marks a conversion by molar mass, not a printed value.

Experiments:
K. pneumoniae ATCC 13883 = experiment: microbe, parasite or virus in culture; conditions: Klebsiella pneumoniae, n = 2
In short: (§1)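 Broth microdilution: 2-fold serial dilutions of test compounds plus reference antibiotics; inoculum = culture diluted 40x in MH broth ±Tween, 37°C, 2–3 h. Controls per plate: bacteria alone (positive), medium alone (negative).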

P. aeruginosa ATCC 10145 = experiment: microbe, parasite or virus in culture; conditions: Pseudomonas aeruginosa, n = 2
In short: as §1

A. baumannii ATCC 19606 = experiment: microbe, parasite or virus in culture; conditions: Acinetobacter baumannii, n = 2
In short: as §1

MRSA = conditions: literature value; cited from earlier work
Description: TABLE 1 Literature MIC values for tested antibiotics | column: MIC (µg/ml) (reference[s]) / MRSA

E. coli = conditions: literature value; cited from earlier work
E. coli ATCC 25922 = experiment: microbe, parasite or virus in culture; conditions: n = 2
Protocol: A positive control of a row of just the bacteria and a negative control of only the medium were included for every plate tested.
The compounds along with standard antibiotics were serially diluted 2-fold across the 96-well plates. […] A sample of each culture was then diluted 40-fold in fresh MH broth (in presence and absence of Tween) and incubated at 37°C for 2 to 3 h.
For experiments in the presence of surfactant, 2% beractant (25 mg/ml) was added to the mid-log-phase cultures and mixed gently and added to all the 96-well plates. For experiments in the presence of serum, a mixture of 50% of human serum along with 50% MHB was prepared and used throughout the experiment.

## CO[C@H]1/C=C/O[C@@]2(C)Oc3c(C)c(O)c4c(O)c(c(/C=N/N5CCN(C)CC5)c(O)c4c3C2=O)NC(=O)/C(C)=C\C=C\[C@H](C)[C@H](O)[C@@H](C)[C@@H](O)[C@@H](C)[C@H](OC(C)=O)[C@@H]1C [Rifampin, rifampin]
K. pneumoniae ATCC 13883; ATCC13883, Corning NBS, MHB +T80
  MIC: 16 µg/mL (≈ 19.4 µM)
K. pneumoniae ATCC 13883; ATCC13883, Corning NBS, MHB -T80
  MIC: 16 µg/mL (≈ 19.4 µM)
K. pneumoniae ATCC 13883; ATCC13883, Corning PS, MHB +T80
  MIC: 16 to 64 µg/mL (≈ 19.4 to 77.8 µM)
K. pneumoniae ATCC 13883; ATCC13883, Corning PS, MHB -T80
  MIC: 8 to 16 µg/mL (≈ 9.72 to 19.4 µM)
K. pneumoniae ATCC 13883; ATCC13883, Corning TC, MHB +T80
  MIC: 16 µg/mL (≈ 19.4 µM)
K. pneumoniae ATCC 13883; ATCC13883, Corning TC, MHB -T80
  MIC: 16 µg/mL (≈ 19.4 µM)
P. aeruginosa ATCC 10145; ATCC10145, Corning NBS, MHB +T80
  MIC: 32 µg/mL (≈ 38.9 µM)
P. aeruginosa ATCC 10145; ATCC10145, Corning NBS, MHB -T80
  MIC: 16 to 32 µg/mL (≈ 19.4 to 38.9 µM)
P. aeruginosa ATCC 10145; ATCC10145, Corning PS, MHB +T80
  MIC: 32 to 64 µg/mL (≈ 38.9 to 77.8 µM)
P. aeruginosa ATCC 10145; ATCC10145, Corning PS, MHB -T80
  MIC: 16 to 32 µg/mL (≈ 19.4 to 38.9 µM)
P. aeruginosa ATCC 10145; ATCC10145, Corning TC, MHB +T80
  MIC: 32 µg/mL (≈ 38.9 µM)
P. aeruginosa ATCC 10145; ATCC10145, Corning TC, MHB -T80
  MIC: 32 µg/mL (≈ 38.9 µM)
A. baumannii ATCC 19606; ATCC19606, Corning NBS, MHB +T80
  MIC: 2 µg/mL (≈ 2.43 µM)
A. baumannii ATCC 19606; ATCC19606, Corning NBS, MHB -T80
  MIC: 2 µg/mL (≈ 2.43 µM)
A. baumannii ATCC 19606; ATCC19606, Corning PS, MHB +T80
  MIC: 2 µg/mL (≈ 2.43 µM)
A. baumannii ATCC 19606; ATCC19606, Corning PS, MHB -T80
  MIC: 2 µg/mL (≈ 2.43 µM)
A. baumannii ATCC 19606; ATCC19606, Corning TC, MHB +T80
  MIC: 2 µg/mL (≈ 2.43 µM)
A. baumannii ATCC 19606; ATCC19606, Corning TC, MHB -T80
  MIC: 2 to 4 µg/mL (≈ 2.43 to 4.86 µM)
MRSA
  MIC (literature): 0.015 ([62]) µg/ml
E. coli
  MIC (literature): 2 ([74], [75]) µg/ml
E. coli ATCC 25922; Corning NBS plate, MHB −T80, no additive
  MIC: 4 to 8 µg/mL
E. coli ATCC 25922; Corning NBS plate, MHB −T80, no additive, listed as Rifampicin
  MIC: 4 to 8 µg/mL
E. coli ATCC 25922; Corning PS plate, MHB +0.002% T80, no further additive
  MIC: 8 to 16 µg/mL
E. coli ATCC 25922; Corning PS plate, MHB +0.002% T80, no further additive, listed as Rifampicin
  MIC: 8 to 16 µg/mL
E. coli ATCC 25922; Corning PS plate, MHB −T80, no additive
  MIC: 4 to 8 µg/mL
E. coli ATCC 25922; Corning PS plate, MHB −T80, no additive, listed as Rifampicin
  MIC: 4 to 8 µg/mL
E. coli ATCC 25922; Corning TC plate, MHB −T80, no additive
  MIC: 4 to 8 µg/mL
E. coli ATCC 25922; Corning TC plate, MHB −T80, no additive, listed as Rifampicin
  MIC: 4 to 8 µg/mL
E. coli ATCC 25922; Escherichia coli, ATCC25922, 24 h, Corning NBS, MH + 2% LHB, 2% LS
  MIC: 4 to 8 µg/mL
E. coli ATCC 25922; Escherichia coli, ATCC25922, 24 h, Corning NBS, MH + 2% LHB, 50% HS
  MIC: 8 µg/mL
E. coli ATCC 25922; Escherichia coli, ATCC25922, 24 h, Corning NBS, MH + 2% LHB, no additive
  MIC: 2 to 4 µg/mL
E. coli ATCC 25922; Escherichia coli, ATCC25922, 24 h, Corning NBS, MH + T80, 2% LS
  MIC: 4 to 8 µg/mL
E. coli ATCC 25922; Escherichia coli, ATCC25922, 24 h, Corning NBS, MH + T80, 50% HS
  MIC: 8 µg/mL
E. coli ATCC 25922; Escherichia coli, ATCC25922, 24 h, Corning PS, MH + 2% LHB, 2% LS
  MIC: 4 to 8 µg/mL
E. coli ATCC 25922; Escherichia coli, ATCC25922, 24 h, Corning PS, MH + 2% LHB, 50% HS
  MIC: 4 to 8 µg/mL
E. coli ATCC 25922; Escherichia coli, ATCC25922, 24 h, Corning PS, MH + 2% LHB, no additive
  MIC: 4 to 8 µg/mL
E. coli ATCC 25922; Escherichia coli, ATCC25922, 24 h, Corning PS, MH + T80, 2% LS
  MIC: 4 to 8 µg/mL
E. coli ATCC 25922; Escherichia coli, ATCC25922, 24 h, Corning PS, MH + T80, 50% HS
  MIC: 8 µg/mL
E. coli ATCC 25922; Escherichia coli, ATCC25922, 24 h, Corning TC, MH + 2% LHB, 2% LS
  MIC: 8 µg/mL
E. coli ATCC 25922; Escherichia coli, ATCC25922, 24 h, Corning TC, MH + 2% LHB, 50% HS
  MIC: 8 to 16 µg/mL
E. coli ATCC 25922; Escherichia coli, ATCC25922, 24 h, Corning TC, MH + 2% LHB, no additive
  MIC: 8 µg/mL
E. coli ATCC 25922; Escherichia coli, ATCC25922, 24 h, Corning TC, MH + T80, 2% LS
  MIC: 4 to 8 µg/mL
E. coli ATCC 25922; Escherichia coli, ATCC25922, 24 h, Corning TC, MH + T80, 50% HS
  MIC: 8 µg/mL
E. coli ATCC 25922; Escherichia coli, ATCC25922, 24 h, Trek PS, MH + 2% LHB, 2% LS
  MIC: 2 to 4 µg/mL
E. coli ATCC 25922; Escherichia coli, ATCC25922, 24 h, Trek PS, MH + 2% LHB, 50% HS
  MIC: 4 µg/mL
E. coli ATCC 25922; Escherichia coli, ATCC25922, 24 h, Trek PS, MH + 2% LHB, no additive
  MIC: 4 to 8 µg/mL
E. coli ATCC 25922; Escherichia coli, ATCC25922, 24 h, Trek PS, MH + T80, 2% LS
  MIC: 4 µg/mL
E. coli ATCC 25922; Escherichia coli, ATCC25922, 24 h, Trek PS, MH + T80, 50% HS
  MIC: 4 to 8 µg/mL
E. coli ATCC 25922; Escherichia coli, ATCC25922, Corning NBS plate, MHB +0.002% T80, no further additive
  MIC: 8 µg/mL (≈ 9.72 µM)
E. coli ATCC 25922; Escherichia coli, ATCC25922, Corning NBS plate, MHB −T80, no additive
  MIC: 4 to 8 µg/mL (≈ 4.86 to 9.72 µM)
E. coli ATCC 25922; Escherichia coli, ATCC25922, Corning NBS, MH, 2% LS
  MIC: 8 µg/mL (≈ 9.72 µM)
E. coli ATCC 25922; Escherichia coli, ATCC25922, Corning NBS, MH, 50% HS
  MIC: 8 µg/mL (≈ 9.72 µM)
E. coli ATCC 25922; Escherichia coli, ATCC25922, Corning PS plate, MHB +0.002% T80, no further additive
  MIC: 8 to 16 µg/mL (≈ 9.72 to 19.4 µM)
E. coli ATCC 25922; Escherichia coli, ATCC25922, Corning PS plate, MHB −T80, no additive
  MIC: 4 to 8 µg/mL (≈ 4.86 to 9.72 µM)
E. coli ATCC 25922; Escherichia coli, ATCC25922, Corning PS, MH, 2% LS
  MIC: 8 µg/mL (≈ 9.72 µM)
E. coli ATCC 25922; Escherichia coli, ATCC25922, Corning PS, MH, 50% HS
  MIC: 4 to 8 µg/mL (≈ 4.86 to 9.72 µM)
E. coli ATCC 25922; Escherichia coli, ATCC25922, Corning TC plate, MHB +0.002% T80, no further additive
  MIC: 8 µg/mL (≈ 9.72 µM)
E. coli ATCC 25922; Escherichia coli, ATCC25922, Corning TC plate, MHB −T80, no additive
  MIC: 4 to 8 µg/mL (≈ 4.86 to 9.72 µM)
E. coli ATCC 25922; Escherichia coli, ATCC25922, Corning TC, MH, 2% LS
  MIC: 8 µg/mL (≈ 9.72 µM)
E. coli ATCC 25922; Escherichia coli, ATCC25922, Corning TC, MH, 50% HS
  MIC: 8 µg/mL (≈ 9.72 µM)
E. coli ATCC 25922; Escherichia coli, ATCC25922, Nunc PS plate, MHB +0.002% T80
  MIC: 4 to 8 µg/mL (≈ 4.86 to 9.72 µM)
E. coli ATCC 25922; Escherichia coli, ATCC25922, Nunc PS plate, MHB −T80
  MIC: 4 µg/mL (≈ 4.86 µM)
E. coli ATCC 25922; Escherichia coli, ATCC25922, Nunc U TC plate, MHB +0.002% T80
  MIC: 8 µg/mL (≈ 9.72 µM)
E. coli ATCC 25922; Escherichia coli, ATCC25922, Nunc U TC plate, MHB −T80
  MIC: 4 to 8 µg/mL (≈ 4.86 to 9.72 µM)
E. coli ATCC 25922; Escherichia coli, ATCC25922, Nunc flat TC plate, MHB +0.002% T80
  MIC: 8 µg/mL (≈ 9.72 µM)
E. coli ATCC 25922; Escherichia coli, ATCC25922, Nunc flat TC plate, MHB −T80
  MIC: 4 µg/mL (≈ 4.86 µM)
E. coli ATCC 25922; Escherichia coli, ATCC25922, Trek PS plate, MHB +0.002% T80, no further additive
  MIC: 8 to 16 µg/mL (≈ 9.72 to 19.4 µM)
E. coli ATCC 25922; Escherichia coli, ATCC25922, Trek PS plate, MHB −T80, no additive
  MIC: 4 µg/mL (≈ 4.86 µM)
E. coli ATCC 25922; Escherichia coli, ATCC25922, Trek PS, MH, 2% LS
  MIC: 4 to 8 µg/mL (≈ 4.86 to 9.72 µM)
E. coli ATCC 25922; Escherichia coli, ATCC25922, Trek PS, MH, 50% HS
  MIC: 8 µg/mL (≈ 9.72 µM)
E. coli ATCC 25922; Trek PS plate, MHB +0.002% T80, no further additive
  MIC: 8 to 16 µg/mL
